Measured values taken from PubChem BioAssay AID248 (DTP/NCI, 2004).
“And” between values parts separate entries of the source, which are not always exact repeats. Equal values may be shown once. Inconclusive results and toxic doses are left out. Cut-off read from the data, not from the text of the source: active = T/C of 150% or more; inactive = T/C below 125%.

Tested on: L1210 leukemia ip in BDF1 mice, survival T/C
Assay: NCI In Vivo Anticancer Drug Screen. Data for tumor model L1210 Leukemia (intraperitoneal) in B6D2F1 (BDF1) mice
Settings: endpoint: mean survival time, higher = longer survival
In short: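 Antitumor effect is assessed in tumor-bearing animals. Survival in the compound arm is compared with a vehicle-dosed control arm and expressed as their quotient.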

[1] = dose: 100.0 mg/kg/injection, schedule: Q04DX003 (ip), vehicle: saline with Tween-80
[2] = dose: 100.0 mg/kg/injection, schedule: Q04DX003 (ip), vehicle: Klucel (hydroxypropylcellulose) (HPC)

Measured: T/C

Cc1cc2c(C)c3cc(C)c(C)c(C)c3cc2c(C)c1C
inactive: dose: 25.0 mg/kg/injection, schedule: Q01DX005 (ip), vehicle: water 114 % of control | dose: 50.0 mg/kg/injection, schedule: Q01DX005 (ip), vehicle: water 94 % of control | dose: 100.0 mg/kg/injection, schedule: Q01DX005 (ip), vehicle: water 94 % of control and 97 % of control | dose: 200.0 mg/kg/injection, schedule: Q01DX005 (ip), vehicle: water 96 % of control | dose: 400.0 mg/kg/injection, schedule: Q01DX005 (ip), vehicle: water 100 % of control

O=C(Nc1ccc2c(c1)OCO2)N1CC1
inactive: dose: 10.0 mg/kg/injection, schedule: Q01DX009 (ip), vehicle: Klucel (hydroxypropylcellulose) (HPC) 102 % of control | dose: 20.0 mg/kg/injection, schedule: Q01DX009 (ip), vehicle: Klucel (hydroxypropylcellulose) (HPC) 92 % of control | dose: 20.0 mg/kg/injection, schedule: Q04DX003 (ip), vehicle: Klucel (hydroxypropylcellulose) (HPC) 103 % of control | dose: 40.0 mg/kg/injection, schedule: Q04DX003 (ip), vehicle: Klucel (hydroxypropylcellulose) (HPC) 113 % of control

O=C1C(=O)c2ccccc2C(O)=C1CN1CCC1
inactive: dose: 100.0 mg/kg/injection, schedule: Q01DX001 (ip), vehicle: saline with Tween-80 95 % of control | dose: 200.0 mg/kg/injection, schedule: Q01DX001 (ip), vehicle: saline with Tween-80 95 % of control

CCCCCCC(CC)NCCO (configuration not stated)
inactive: dose: 75.0 mg/kg/injection, schedule: Q01DX001 (ip), vehicle: saline 96 % of control

CN1CCC(c2ccccc2)(c2ccccc2)OC1
inactive: [1] 94 % of control

ON=C(c1ccccc1)c1ccccc1
inactive: dose: 100.0 mg/kg/injection, schedule: Q01DX009 (ip), vehicle: saline with Tween-80 101 % of control | dose: 200.0 mg/kg/injection, schedule: Q01DX009 (ip), vehicle: saline with Tween-80 105 % of control

CCOC(=O)c1cnc2c(ccc3ncccc32)c1NCCCN(CC)CC
inactive: dose: 50.0 mg/kg/injection, schedule: Q01DX009 (ip), vehicle: Klucel (hydroxypropylcellulose) (HPC) 112 % of control

COP(=O)(OC)Oc1c(Cl)c(OP(=O)(OC)OC)c(Cl)c(OP(=O)(OC)OC)c1Cl
inactive: dose: 100.0 mg/kg/injection, schedule: Q04DX002 (ip), vehicle: Klucel (hydroxypropylcellulose) (HPC) 115 % of control | dose: 200.0 mg/kg/injection, schedule: Q04DX002 (ip), vehicle: Klucel (hydroxypropylcellulose) (HPC) 100 % of control | dose: 400.0 mg/kg/injection, schedule: Q04DX002 (ip), vehicle: Klucel (hydroxypropylcellulose) (HPC) 86 % of control

C=CC(=O)Nc1cccc(OC(=O)NC(C)C)c1
inactive: [1] 89 % of control | dose: 200.0 mg/kg/injection, schedule: Q04DX003 (ip), vehicle: saline with Tween-80 97 % of control | dose: 400.0 mg/kg/injection, schedule: Q04DX003 (ip), vehicle: saline with Tween-80 103 % of control

NNc1cc(NN)c2[nH]cnc2n1
inactive: dose: 25.0 mg/kg/injection, schedule: Q01DX001 (ip), vehicle: Klucel (hydroxypropylcellulose) (HPC) 100 % of control | dose: 25.0 mg/kg/injection, schedule: Q04DX003 (ip), vehicle: Klucel (hydroxypropylcellulose) (HPC) 102 % of control | dose: 50.0 mg/kg/injection, schedule: Q01DX001 (ip), vehicle: Klucel (hydroxypropylcellulose) (HPC) 93 % of control | dose: 50.0 mg/kg/injection, schedule: Q04DX003 (ip), vehicle: Klucel (hydroxypropylcellulose) (HPC) 105 % of control | dose: 100.0 mg/kg/injection, schedule: Q01DX001 (ip), vehicle: Klucel (hydroxypropylcellulose) (HPC) 100 % of control and 108 % of control | [2] 112 % of control

O=S(=O)(Nc1ccccc1)c1ccccc1
inactive: [2] 98 % of control | dose: 200.0 mg/kg/injection, schedule: Q04DX003 (ip), vehicle: Klucel (hydroxypropylcellulose) (HPC) 107 % of control | dose: 400.0 mg/kg/injection, schedule: Q04DX003 (ip), vehicle: Klucel (hydroxypropylcellulose) (HPC) 98 % of control

CCCCCCCCCC(=O)CCC
inactive: dose: 100.0 mg/kg/injection, schedule: Q01DX009 (ip), vehicle: saline 100 % of control | dose: 100.0 mg/kg/injection, schedule: Q04DX003 (ip), vehicle: saline 111 % of control | dose: 200.0 mg/kg/injection, schedule: Q01DX009 (ip), vehicle: saline 96 % of control | dose: 200.0 mg/kg/injection, schedule: Q04DX003 (ip), vehicle: saline 97 % of control | dose: 400.0 mg/kg/injection, schedule: Q01DX009 (ip), vehicle: saline 98 % of control | dose: 400.0 mg/kg/injection, schedule: Q04DX003 (ip), vehicle: saline 105 % of control
